Data as given in the CheMixHub ionic liquid set.

Test: xn = mol fraction of the nth substance listed

CCCC[n+]1ccc(C)cc1.O=S(=O)([N-]S(=O)(=O)C(F)(F)F)C(F)(F)F + CCOS(=O)(=O)[O-].CC[n+]1ccn(C)c1
100 kPa
Conditions	viscosity [mPa·s]
293.15 K, x2 = 0.1177	86.8
293.15 K, x2 = 0.3341	116.8
293.15 K, x2 = 0.558	145
303.15 K, x2 = 0.558	86.5
303.15 K, x2 = 0.7776	89.6
313.15 K, x2 = 0.3341	46.2
313.15 K, x2 = 0.6663	58.1
313.15 K, x2 = 0.9487	53.1
323.15 K, x2 = 0.6663	39.8
323.15 K, x2 = 0.7776	39.6
333.15 K, x2 = 0.1177	18.6
333.15 K, x2 = 0.3341	23.1
333.15 K, x2 = 0.558	27.4
333.15 K, x2 = 0.6663	28.5
343.15 K, x2 = 0.0475	13
343.15 K, x2 = 0.1177	14
343.15 K, x2 = 0.6663	21
343.15 K, x2 = 0.7776	21
343.15 K, x2 = 0.9487	19.9
353.15 K, x2 = 0.0475	10.3
353.15 K, x2 = 0.226	12.2

CCCC[N+](CCCC)(CCCC)CCCC.[Cl-] + CC[C@H](C)[C@H](N)C(=O)O
electrical conductivity [S/m], 100 kPa
Conditions	313.15 K	323.15 K	333.15 K	343.15 K	353.15 K
x1 = 0.8889	0.0522	0.0655	0.0876	0.1	0.119
x1 = 0.9	0.0263	0.045	0.0615	0.0789	0.105
x1 = 0.9091	0.0364	0.0499	0.072	0.0843	0.111

CCCC[NH3+].O=[N+]([O-])[O-] + CC[NH3+].O=[N+]([O-])[O-]
electrical conductivity [S/m], 101 kPa, frequency 0.00293 MHz
Conditions	303.15 K	308.15 K	323.15 K
x2 = 0.25	–	0.88	1.38
x2 = 0.75	1.68	–	–

101 kPa
Conditions	viscosity [mPa·s]
303.15 K, x2 = 0.75	42.1
308.15 K, x2 = 0.25	56.1
323.15 K, x2 = 0.25	33.7
333.15 K, x2 = 0.25	25.2
338.15 K, x2 = 0.25	22
338.15 K, x2 = 0.75	15.5
343.15 K, x2 = 0.25	19.4
353.15 K, x2 = 0.25	15.4
353.15 K, x2 = 0.5	13.3

CS(C)=O + CC[NH+](CC)CC.O=P([O-])(O)O
101 kPa, x1 = 1
Conditions	viscosity [mPa·s]
298.15 K	1.99
303.15 K	1.8
308.15 K	1.65

CS(C)=O + CC[n+]1ccn(C)c1.COS(=O)(=O)[O-]
100 kPa, x2 = 0
Conditions	viscosity [mPa·s]
298.15 K	1.99
303.15 K	1.8
308.15 K	1.65
313.15 K	1.54

CC[n+]1ccn(C)c1.[Cl-] + CC[n+]1ccn(C)c1.F[B-](F)(F)F
Conditions	viscosity [mPa·s]
293 K, 101 kPa, x1 = 0.2627	92.4

C[N+]1(CCOCCOCC[N+]2(C)CCCC2)CCCC1.O=S(=O)([N-]S(=O)(=O)C(F)(F)F)C(F)(F)F.O=S(=O)([N-]S(=O)(=O)C(F)(F)F)C(F)(F)F + CC[n+]1ccn(C)c1.N#C[N-]C#N + O=S(=O)([N-]S(=O)(=O)C(F)(F)F)C(F)(F)F.[Li+]
electrical conductivity [S/m], 100 kPa
Conditions	298 K	303 K	313 K	323 K	333 K	343 K
x1 = 0.1484, x2 = 0.7091	0.719	0.844	1.2	1.49	1.86	2.18
x1 = 0.1554, x2 = 0.7427	0.972	1.17	1.56	1.97	2.42	2.85

C[N+]1(CCOCCOCC[N+]2(C)CCCC2)CCCC1.O=S(=O)([N-]S(=O)(=O)C(F)(F)F)C(F)(F)F.O=S(=O)([N-]S(=O)(=O)C(F)(F)F)C(F)(F)F + CC[n+]1ccn(C)c1.O=S(=O)([N-]S(=O)(=O)C(F)(F)F)C(F)(F)F + O=S(=O)([N-]S(=O)(=O)C(F)(F)F)C(F)(F)F.[Li+]
100 kPa, x1 = 0.2689, x2 = 0.5819
Conditions	electrical conductivity [S/m]
298 K	0.282
303 K	0.341
313 K	0.451
323 K	0.63
333 K	0.82
343 K	1.02

C[NH2+]CCC=C1c2ccccc2CCc2ccccc21.[Cl-] + CC[n+]1ccn(C)c1.[Br-] + O
viscosity [mPa·s], 100 kPa
Conditions	288.15 K	298.15 K	308.15 K	318.15 K
x1 = 0.0001985, x2 = 0.0001801	1.149	0.92	0.754	0.638
x1 = 0.0002171, x2 = 0.0007201	1.157	0.927	0.76	0.645
x1 = 0.0002197, x2 = 0.00126	1.164	0.936	0.768	0.653
x1 = 0.0005409, x2 = 0.0001801	1.158	0.928	0.761	0.646
x1 = 0.00056, x2 = 0.001259	1.173	0.944	0.776	0.662
x1 = 0.0005649, x2 = 0.0007199	1.166	0.935	0.768	0.653
x1 = 0.0009071, x2 = 0.0007196	1.176	0.944	0.776	0.66
x1 = 0.0009111, x2 = 0.00018	1.168	0.936	0.769	0.652
x1 = 0.0009287, x2 = 0.001259	1.183	0.952	0.784	0.67
x1 = 0.001275, x2 = 0.001258	1.194	0.962	0.792	0.678
x1 = 0.001279, x2 = 0.0001799	1.179	0.945	0.776	0.659
x1 = 0.001292, x2 = 0.0007194	1.187	0.953	0.784	0.667
x1 = 0.001649, x2 = 0.0007191	1.199	0.963	0.792	0.674
x1 = 0.001657, x2 = 0.0001799	1.19	0.954	0.784	0.666
x1 = 0.001661, x2 = 0.001258	1.206	0.972	0.8	0.686
x1 = 0.002001, x2 = 0.0001798	1.201	0.964	0.792	0.674
x1 = 0.002028, x2 = 0.0007188	1.211	0.974	0.8	0.681
x1 = 0.002029, x2 = 0.001257	1.218	0.982	0.809	0.694
x1 = 0.002358, x2 = 0.0001797	1.213	0.975	0.801	0.682
x1 = 0.002375, x2 = 0.001257	1.231	0.993	0.818	0.702
x1 = 0.002379, x2 = 0.0007186	1.223	0.984	0.808	0.689
x1 = 0.002737, x2 = 0.0001797	1.226	0.986	0.81	0.691
x1 = 0.002745, x2 = 0.001256	1.244	1.004	0.827	0.71
x1 = 0.002757, x2 = 0.0007183	1.236	0.994	0.817	0.698
x1 = 0.00309, x2 = 0.001256	1.258	1.015	0.836	0.718
x1 = 0.003104, x2 = 0.0001796	1.24	0.997	0.819	0.7
x1 = 0.003108, x2 = 0.000718	1.249	1.005	0.826	0.707
x1 = 0.003467, x2 = 0.0001795	1.255	1.008	0.829	0.709
x1 = 0.003489, x2 = 0.0007178	1.263	1.016	0.836	0.716
x1 = 0.00349, x2 = 0.001255	1.272	1.026	0.846	0.725
